From patent US6221906A, “Platinum complex conjugated to cyclotriphosphazene, its preparation, and anticancer agent comprising the same” (Korea Institute of Science and Technology, priority 1999, dated 2001)

Experiments:
leukemia L1210 cells = test: anticancer activity test against mouse leukemia L1210 cells implanted in BDF1 mice; type: in vivo; settings: intra-peritoneal, days 1, 5 and 9; for Number of survival after 60 days: of 8 mice
[1] = literature value; cited from earlier work
Hartley guinea pigs = test: guinea pig anaphylaxis test; type: in vivo
Procedure: […] The systemic symptoms were observed 30 minutes after the injection. […] However, only 2 animals administered with oligomeric platinum complex of the present invention (KI 60606: The compound in Example 8 of the present invention) had severe symptoms but none died.

ICR mouse = test: pilot acute toxicity test, single tail vein injection (LD50); type: in vivo; settings: for Death rate: 2 animals; for deaths on day 0 after administration: of 2 animals
Procedure: A pilot acute toxicity test was performed for the compound (KI-60606) described in Example 8 of the present invention by intravenous injection.
(2) carrier: physiological saline for injection
(1) animal model: ICR mouse
(2) age of the animal: 4 weeks old when delivered, 5 weeks old when the drug was administered
(3) sex and number of animals: 12 males and 12 females
(4) breeding condition: temperature: 23 3C. relative humidity: 50 10% light intensity: 150-300 Lux
3. Number and method of administration: single tail vein injection
5. Observation categories: general symptoms, symptoms of dead animals, body weight up to seventh day after administration, autopsy finding.

[2] = antigen 5 mg/kg, induced antigen 5 mg/kg, 4 animals
[3] = antigen 1 mg/kg, induced antigen 5 mg/kg, 4 animals
[4] = male or female mice, 500 mg/kg or more

O=C1CC[C@H](NP2(N[C@H]3CCC(=O)[O][Pt-2]4([NH2+]CC[NH2+]4)[O]C3=O)=NP(N[C@H]3CCC(=O)[O][Pt-2]4([NH2+]CC[NH2+]4)[O]C3=O)(N[C@H]3CCC(=O)[O][Pt-2]4([NH2+]CC[NH2+]4)[O]C3=O)=NP(N[C@H]3CCC(=O)[O][Pt-2]4([NH2+]CC[NH2+]4)[O]C3=O)(N[C@H]3CCC(=O)[O][Pt-2]4([NH2+]CC[NH2+]4)[O]C3=O)=N2)C(=O)[O][Pt-2]2([NH2+]CC[NH2+]2)[O]1 [Example 13, [NP(L-Glu·Pt(en))2]3]
Increased life span (ILS) (leukemia L1210 cells; 30 mg/kg): 277% | Increased life span (ILS) (leukemia L1210 cells; 60 mg/kg): Toxic

N.N.O=C([O-])C1(C(=O)[O-])CCC1.[Pt+2] [Carboplatin, cis-(NH3)2 Pt(CBDCA), reference compound]
LD50 [1]: 180 mg/kg | Increased life span (ILS) (leukemia L1210 cells; 40 mg/kg): 80%

O=C1[O][Pt-2]2([NH2+]CC[NH2+]2)[O]C(=O)C1NP1(NC2C(=O)[O][Pt-2]3([NH2+]CC[NH2+]3)[O]C2=O)=NP(NC2C(=O)[O][Pt-2]3([NH2+]CC[NH2+]3)[O]C2=O)(NC2C(=O)[O][Pt-2]3([NH2+]CC[NH2+]3)[O]C2=O)=NP(NC2C(=O)[O][Pt-2]3([NH2+]CC[NH2+]3)[O]C2=O)(NC2C(=O)[O][Pt-2]3([NH2+]CC[NH2+]3)[O]C2=O)=N1 (stereo not shown) [Example 18, [NP(Am·Pt(en))2]3]
Increased life span (ILS) (leukemia L1210 cells; 30 mg/kg): > 400% | Number of survival after 60 days (leukemia L1210 cells; 30 mg/kg): 3/8 | Increased life span (ILS) (leukemia L1210 cells; 60 mg/kg): Toxic

[NP(OH)(Glu.Pt(dach)]n [KI-30606, reference compound]
death due to anaphylaxis (Hartley guinea pigs; all animals, 30 minutes after injection): died due to anaphylaxis | number of animals with symptom [+++] (death) (Hartley guinea pigs; antigen 1 mg/kg, induced antigen 5 mg/kg, 5 animals): 5 | number of animals with symptom [+++] (death) (Hartley guinea pigs; [2]): 4

N.N.[Cl][Pt][Cl] [Cisplatin, cis-(NH3)2 PtCl2, reference compound]
Increased life span (ILS) (leukemia L1210 cells; 4 mg/kg): 60%

O=C1[O][Pt-2]2([NH2+]C3CCCCC3[NH2+]2)[O]C(=O)C1NP1(NC2C(=O)[O][Pt-2]3([NH2+]C4CCCCC4[NH2+]3)[O]C2=O)=NP(NC2C(=O)[O][Pt-2]3([NH2+]C4CCCCC4[NH2+]3)[O]C2=O)(NC2C(=O)[O][Pt-2]3([NH2+]C4CCCCC4[NH2+]3)[O]C2=O)=NP(NC2C(=O)[O][Pt-2]3([NH2+]C4CCCCC4[NH2+]3)[O]C2=O)(NC2C(=O)[O][Pt-2]3([NH2+]C4CCCCC4[NH2+]3)[O]C2=O)=N1 (racemic) [Example 16, [NP(Am·Pt(dach)2]3]
Increased life span (ILS) (leukemia L1210 cells; 30 mg/kg): 222.1% | Increased life span (ILS) (leukemia L1210 cells; 60 mg/kg): Toxic

O=C1CC(NP2(NC3CC(=O)[O][Pt-2]4([NH2+]C5CCCCC5[NH2+]4)[O]C3=O)=NP(NC3CC(=O)[O][Pt-2]4([NH2+]C5CCCCC5[NH2+]4)[O]C3=O)(NC3CC(=O)[O][Pt-2]4([NH2+]C5CCCCC5[NH2+]4)[O]C3=O)=NP(NC3CC(=O)[O][Pt-2]4([NH2+]C5CCCCC5[NH2+]4)[O]C3=O)(NC3CC(=O)[O][Pt-2]4([NH2+]C5CCCCC5[NH2+]4)[O]C3=O)=N2)C(=O)[O][Pt-2]2([NH2+]C3CCCCC3[NH2+]2)[O]1 [Example 1, [NP(L-Asp·Pt(dach))2]3]
Increased life span (ILS) (leukemia L1210 cells; 40 mg/kg): > 243.8% | Number of survival after 60 days (leukemia L1210 cells; 40 mg/kg): 1/8 | Increased life span (ILS) (leukemia L1210 cells; 60 mg/kg): > 448.8% | Number of survival after 60 days (leukemia L1210 cells; 60 mg/kg): 4/8

O=C1CCC(NP2(NC3CCC(=O)[O][Pt-2]4([NH2+]C5CCCCC5[NH2+]4)[O]C3=O)=NP(NC3CCC(=O)[O][Pt-2]4([NH2+]C5CCCCC5[NH2+]4)[O]C3=O)(NC3CCC(=O)[O][Pt-2]4([NH2+]C5CCCCC5[NH2+]4)[O]C3=O)=NP(NC3CCC(=O)[O][Pt-2]4([NH2+]C5CCCCC5[NH2+]4)[O]C3=O)(NC3CCC(=O)[O][Pt-2]4([NH2+]C5CCCCC5[NH2+]4)[O]C3=O)=N2)C(=O)[O][Pt-2]2([NH2+]C3CCCCC3[NH2+]2)[O]1 [Example 8, [NP(L-Glu·Pt(dach))2]3]
death in anaphylaxis test (Hartley guinea pigs; all dose groups): none died | number of animals with severe symptoms (Hartley guinea pigs; all dose groups): 2 | number of animals with symptom [++] (severe) (Hartley guinea pigs; [3]): 2 | number of animals with symptom [+] (moderate) (Hartley guinea pigs; [3]): 1 | number of animals with symptom [±] (mild) (Hartley guinea pigs; [3]): 1 | number of animals with symptom [+] (moderate) (Hartley guinea pigs; [2]): 1 | number of animals with symptom [-] (asymptomatic) (Hartley guinea pigs; [2]): 3 | antigenicity compared with physiological saline (Hartley guinea pigs; compared with physiological saline solution): antigenicity was even less | Main symptoms (ICR mouse; 62.5-2000 mg/kg, single intravenous injection, ICR mice): prone positioning, gait disturbance, dyspnea and decrease in body weight | General symptoms of dead mice (ICR mouse; 125 or 250 mg/kg): prone positioning and drooling | Estimated LD50 value (ICR mouse; female ICR mice, single intravenous injection): 125 to 250 mg/kg | Death rate (ICR mouse; female, 62.5 mg/kg): 0% | number of mice with decrease in body weight (ICR mouse; female, 125 mg/kg): 2 | Death rate (ICR mouse; female, 125 mg/kg): 0% | Death rate (ICR mouse; female, 250 mg/kg): 100% | deaths on day 0 after administration (ICR mouse; female, 250 mg/kg): 2 | Death rate (ICR mouse; female, 500 mg/kg): 100% | deaths on day 0 after administration (ICR mouse; female, 500 mg/kg): 2 | Death rate (ICR mouse; female, 1000 mg/kg): 100% | deaths on day 0 after administration (ICR mouse; female, 1000 mg/kg): 2 | Death rate (ICR mouse; female, 2000 mg/kg): 100% | deaths on day 0 after administration (ICR mouse; female, 2000 mg/kg): 2 | Estimated LD50 value (ICR mouse; male ICR mice, single intravenous injection): 125 mg/kg | General symptoms (ICR mouse; [4]): prone positioning, gait disturbance and dyspnea | time of death after injection (ICR mouse; [4]): 10 to 20 s | number of mice with decrease in body weight (ICR mouse; male, 62.5 mg/kg): 1 | Death rate (ICR mouse; male, 62.5 mg/kg): 0% | Death rate (ICR mouse; male, 125 mg/kg): 50% | deaths on day 0 after administration (ICR mouse; male, 125 mg/kg): 1 | Death rate (ICR mouse; male, 250 mg/kg): 100% | deaths on day 0 after administration (ICR mouse; male, 250 mg/kg): 2 | Death rate (ICR mouse; male, 500 mg/kg): 100% | deaths on day 0 after administration (ICR mouse; male, 500 mg/kg): 2 | Death rate (ICR mouse; male, 1000 mg/kg): 100% | deaths on day 0 after administration (ICR mouse; male, 1000 mg/kg): 2 | Death rate (ICR mouse; male, 2000 mg/kg): 100% | deaths on day 0 after administration (ICR mouse; male, 2000 mg/kg): 2 | autopsy finding (ICR mouse; mice that died immediately and mice that survived): No particular autopsy finding was observed | General symptoms of live animals (ICR mouse; one day after injection): did not have any particular symptoms | Increased life span (ILS) (leukemia L1210 cells; 60 mg/kg): > 400% | Number of survival after 60 days (leukemia L1210 cells; 60 mg/kg): 3/8 | Increased life span (ILS) (leukemia L1210 cells; 80 mg/kg): > 402.8% | Number of survival after 60 days (leukemia L1210 cells; 80 mg/kg): 3/8

CC1(C)C[NH2+][Pt-2]2([NH2+]C1)[O]C(=O)C[C@H](NP1(N[C@H]3CC(=O)[O][Pt-2]4([NH2+]CC(C)(C)C[NH2+]4)[O]C3=O)=NP(N[C@H]3CC(=O)[O][Pt-2]4([NH2+]CC(C)(C)C[NH2+]4)[O]C3=O)(N[C@H]3CC(=O)[O][Pt-2]4([NH2+]CC(C)(C)C[NH2+]4)[O]C3=O)=NP(N[C@H]3CC(=O)[O][Pt-2]4([NH2+]CC(C)(C)C[NH2+]4)[O]C3=O)(N[C@H]3CC(=O)[O][Pt-2]4([NH2+]CC(C)(C)C[NH2+]4)[O]C3=O)=N1)C(=O)[O]2 [Example 2, [NP(L-Asp·Pt(dmpda))2]3]
Increased life span (ILS) (leukemia L1210 cells; 30 mg/kg): 165.0% | Increased life span (ILS) (leukemia L1210 cells; 60 mg/kg): 147.9%

O=C1C[C@H](NP2(N[C@H]3CC(=O)[O][Pt-2]4([NH2+]CC[NH2+]4)[O]C3=O)=NP(N[C@H]3CC(=O)[O][Pt-2]4([NH2+]CC[NH2+]4)[O]C3=O)(N[C@H]3CC(=O)[O][Pt-2]4([NH2+]CC[NH2+]4)[O]C3=O)=NP(N[C@H]3CC(=O)[O][Pt-2]4([NH2+]CC[NH2+]4)[O]C3=O)(N[C@H]3CC(=O)[O][Pt-2]4([NH2+]CC[NH2+]4)[O]C3=O)=N2)C(=O)[O][Pt-2]2([NH2+]CC[NH2+]2)[O]1 [Example 4, [NP(L-Asp·Pt(en))2]3]
Increased life span (ILS) (leukemia L1210 cells; 30 mg/kg): 250.9% | Increased life span (ILS) (leukemia L1210 cells; 60 mg/kg): Toxic
